Results as given in ChEMBL document CHEMBL4190264, “Phylogenomics of 2,4-Diacetylphloroglucinol-Producing Pseudomonas and Novel Antiglycation Endophytes from Piper auritum” (J Nat Prod, 2017).
Active and inactive are the calls of the source. No cut-off for these calls is given here.

Legend:
Albumin [1] = biological target: T1, Albumin (Bos taurus, UniProt P02769); assay: Antiglycation activity in bovine serum albumin assessed as inhibition of advanced glycated end product formation in presence of D-glucose by spectrofluorimetric analysis; conditions: for inhibition (INH): cattle
Albumin [2] = biological target: T1, Albumin; assay: Antiglycation activity in bovine serum albumin assessed as inhibition of advanced glycated end product formation in presence of D-glucose and 5-hydroxyferulic acid by spectrofluorimetric analysis; conditions: cattle
[3] = Inhibition of glucose auto-oxidation after 30 mins in presence of deoxyribose by benzoate hydroxylation assay; format: functional
Albumin [4] = biological target: T1, Albumin; assay: Antiglycation activity in bovine serum albumin assessed as inhibition of MGO-mediated protein modification after 5 days by PAGE analysis; conditions: cattle, 120 h
Albumin [5] = biological target: T2, Albumin (Homo sapiens, UniProt P02768); assay: Antiglycation activity in human serum albumin assessed as inhibition of fructosamine formation by measuring amadori products after 10 to 15 mins by NBT assay
Albumin [6] = biological target: T2, Albumin; assay: Antiglycation activity in human serum albumin assessed as inhibition of fructosamine formation by measuring amadori products after 10 to 15 mins in presence of 5-hydroxyferulic acid by NBT assay
Albumin [7] = biological target: T1, Albumin; assay: Antiglycation activity in bovine serum albumin assessed as inhibition of advanced glycated end product formation in presence of D-glucose and ferulic acid by spectrofluorimetric analysis; conditions: cattle
Albumin [8] = biological target: T1, Albumin; assay: Antiglycation activity in bovine serum albumin assessed as inhibition of advanced glycated end product formation in presence of D-glucose at 10 mM by spectrofluorimetric analysis; conditions: cattle

T1 sequence (P02769 whole entry): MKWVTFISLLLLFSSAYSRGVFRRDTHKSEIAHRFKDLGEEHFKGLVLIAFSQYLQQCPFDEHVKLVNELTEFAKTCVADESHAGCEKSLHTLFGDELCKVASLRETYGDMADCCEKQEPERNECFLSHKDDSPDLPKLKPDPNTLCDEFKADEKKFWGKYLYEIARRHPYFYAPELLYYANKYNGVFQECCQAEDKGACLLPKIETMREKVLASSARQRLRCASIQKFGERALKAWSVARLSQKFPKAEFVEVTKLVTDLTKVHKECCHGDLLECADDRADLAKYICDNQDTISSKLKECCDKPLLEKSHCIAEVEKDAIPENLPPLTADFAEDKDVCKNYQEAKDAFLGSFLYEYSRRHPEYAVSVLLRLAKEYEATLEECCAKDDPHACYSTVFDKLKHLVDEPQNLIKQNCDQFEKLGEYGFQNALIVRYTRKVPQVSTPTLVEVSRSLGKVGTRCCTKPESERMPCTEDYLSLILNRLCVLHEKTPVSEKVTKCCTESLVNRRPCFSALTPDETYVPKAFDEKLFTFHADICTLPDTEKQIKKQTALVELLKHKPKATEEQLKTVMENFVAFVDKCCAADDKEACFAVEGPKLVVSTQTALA
T2 sequence (P02768 whole entry): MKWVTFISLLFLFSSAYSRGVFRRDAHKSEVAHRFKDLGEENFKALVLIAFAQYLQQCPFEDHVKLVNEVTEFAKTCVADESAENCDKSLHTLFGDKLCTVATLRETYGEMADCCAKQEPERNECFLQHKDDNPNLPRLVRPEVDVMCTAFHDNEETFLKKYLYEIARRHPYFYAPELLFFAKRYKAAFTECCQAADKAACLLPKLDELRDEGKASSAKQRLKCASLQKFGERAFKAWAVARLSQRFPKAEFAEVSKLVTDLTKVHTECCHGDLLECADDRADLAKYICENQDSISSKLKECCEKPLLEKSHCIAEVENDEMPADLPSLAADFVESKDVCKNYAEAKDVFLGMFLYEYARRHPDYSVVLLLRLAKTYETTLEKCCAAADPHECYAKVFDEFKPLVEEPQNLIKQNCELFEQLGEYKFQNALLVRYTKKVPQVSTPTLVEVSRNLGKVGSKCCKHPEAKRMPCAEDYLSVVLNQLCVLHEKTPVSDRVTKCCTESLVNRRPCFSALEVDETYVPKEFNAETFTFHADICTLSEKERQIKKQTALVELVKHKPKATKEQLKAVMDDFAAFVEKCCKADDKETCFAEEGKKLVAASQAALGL

SMILES: CCCCCC/C=C\CCCCCCCCCC(=O)O [VACCENIC ACID]
- inhibition (INH) (Albumin [1]): 66%

SMILES: COc1cc(/C=C/C(=O)O)ccc1O [FERULATE]
- inhibition (INH) (Albumin [1]): Not Active
- inhibition (INH) (Albumin [2]): Active

SMILES: CCCCCCCC/C=C\CCCCCCC(=O)O
- inhibition (INH) (Albumin [1]): 66%

SMILES: CC(=O)c1c(O)cc(O)c(C(C)=O)c1O
- EC50 (Albumin [1]): 6.3 mM
- inhibition (INH) (Albumin [1]): 83%
- inhibition [3]: Active
- inhibition (INH) (Albumin [4]): Active
- inhibition (INH) (Albumin [5]): Not Active
- inhibition (INH) (Albumin [6]): Active
- inhibition (INH) (Albumin [2]): Active

SMILES: COc1cc(/C=C/C(=O)O)cc(O)c1O
- inhibition (INH) (Albumin [1]): Not Active
- inhibition (INH) (Albumin [7]): Active

SMILES: N=C(N)NN [PIMAGEDINE]
- EC50 (Albumin [1]): 26 mM
- inhibition (INH) (Albumin [8]): Active

SMILES: CCCCCCCCCCCCCCCC(=O)O [PALMITIC ACID]
- inhibition (INH) (Albumin [1]): 66%
